Results as given in patent publication US10786476B2, “Combination therapy” (IMBRIA PHARMACEUTICALS, INC., priority 2016, dated 2020).
Entries after “also recorded” stand apart in the source; their conditions may differ. Like-named read-outs stand apart in the source and are kept apart here.

Assay: Viscosity / flow property test (flow out of a vial, be swirled, direct drinking)
Type: physicochemical
Description: Properties of provided compounds and compositions can be readily tested, including using a number of methods widely known and practiced in the art, in accordance with the present disclosure. For example, viscosity and/or taste of provided compounds can be readily tested. In some embodiments, viscosity was assessed by testing whether a provided compound could readily flow out of a vial or be swirled. In some embodiments, viscosity was assessed by testing whether a provided compound could be administered by direct drinking by a subject. In some embodiments, taste was assessed by testing whether a provided compound could be administered by direct drinking by a subject.

For `CCCCCCCC(=O)OCC(COC(=O)CCC(=O)OCC(COC(=O)CCCCCCC)OC(=O)CCCCCCC)OC(=O)CCCCCCC` (stereo not shown) [Compound I-30, bis (2,3-bis(octanoyloxy)propyl) succinate], the “flow property for formulation” value was “surprisingly good; also recorded: good flow property for formulation”, the “viscosity compared with glycerol” value (at room temperature) was “lower viscosity than glycerol” and the “viscosity compared with glycerol” value (temperature not stated) was “lower viscosity than glycerol”.

With `CCCC(=O)OCC(COC(=O)CCC(=O)OCC(COC(=O)CCC)OC(=O)CCC)OC(=O)CCC` (stereo not shown) [Compound I-29, succinate diglycerol tetra-butyric acid] the “flow property for formulation” value was “surprisingly good”, the “viscosity compared with glycerol” value (at room temperature) was “lower viscosity than glycerol” and the “flow property for formulation” value (listed as 1-29) was “good flow property for formulation”. The “viscosity compared with glycerol” value (temperature not stated) was “lower viscosity than glycerol”.
